Data published in patent US7792665B2, “Method for designing a compound based on the three dimensional structure of phosphoinositide dependent protein kinase 1 (PDK1)” (Medical Research Council, priority 2002, dated 2010).
Where a chain is given by its changes, count along the chain named. “Also recorded” adds a separate entry of the source. Where a SMILES comes first, the peptide text is derived from it. [ ]: non-standard residue; d: D form. pT = C[C@@H](OP(=O)(O)O)[C@H](N)C(=O)O

What was measured:
[1] = target: T1, PDK1[R131A] (Homo sapiens, UniProt O15530, R131A); assay: Surface plasmon resonance (BiaCore) binding, PDK1[R131A]
T1 construct: GST (N); made in house; host or cells: human embryonic kidney 293 cells (pEBG2T vector)
T1 sequence (O15530 1-556 R131A): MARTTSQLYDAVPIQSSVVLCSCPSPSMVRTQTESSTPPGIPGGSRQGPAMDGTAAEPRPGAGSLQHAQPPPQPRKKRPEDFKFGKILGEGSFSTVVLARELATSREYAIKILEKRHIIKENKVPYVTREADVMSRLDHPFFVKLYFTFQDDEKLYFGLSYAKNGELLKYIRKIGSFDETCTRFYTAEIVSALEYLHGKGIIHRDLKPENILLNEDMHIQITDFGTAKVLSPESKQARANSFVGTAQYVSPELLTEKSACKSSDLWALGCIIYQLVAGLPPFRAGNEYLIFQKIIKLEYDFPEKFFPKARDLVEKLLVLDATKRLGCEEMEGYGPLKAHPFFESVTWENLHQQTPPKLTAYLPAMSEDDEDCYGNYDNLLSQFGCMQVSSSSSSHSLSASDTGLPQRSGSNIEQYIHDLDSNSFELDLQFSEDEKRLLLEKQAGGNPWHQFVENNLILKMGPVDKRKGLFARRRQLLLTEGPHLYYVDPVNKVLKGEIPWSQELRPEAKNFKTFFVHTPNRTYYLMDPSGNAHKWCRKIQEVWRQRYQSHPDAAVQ
Procedure: (§1) Binding and activation of wild type and mutant forms of PDK1 to a phosphopeptide derived from the hydrophobic motif of S6K1. The binding of the wild type (wt) PDK1 and indicated mutants to a phosphopeptide comprising the hydrophobic motif of S6K1 (S6K-pHM: […]*YVAPSV, where T* indicates phospho-threonine, SEQ ID NO:104) was analysed by surface plasmon resonance as described in the Materials and Methods.
(§2) A. The sensor chip SA was coated with 12RUs of the biotinylated S6K-pHM peptide and the binding was analysed following injection of 270 nM wild type PDK1, PDK1 [T148A] and PDK1 [K76A]. […] (data not shown).
(§3) Binding was analysed in a BiaCore 3000 system (BiaCore AB, Stevenage, UK). Biotinylated S6K-pHM (Biotin-C12-[…](P)YVAPSV) (SEQ ID NO:104) or the non-phosphorylated form of this peptide S6K-HM was bound to an streptavidin-coated Sensor chip (SA) (12 response units, RU). 30 μl of wild type or the indicated mutant GST-PDK1 were injected at a flow rate of 30 μl/min, in buffer HBS-P (10 mM HEPES pH 7.4, 0.15M NaCl, 0.005% (by vol) polysorbate-20) supplemented with 1 mM DTT. Specific interactions between 56K-pHM and PDK1 proteins were obtained between the concentration range of 2-2150 nM PDK1. Steady state binding was determined at each concentration. Dissociation of PDK1 from the phospho-peptide was monitored over a 1 min period. […]

[2] = target: T1, PDK1[R131A]; assay: PDK1 catalytic activity towards T308tide, activation by peptides, PDK1[R131A]; assay type: biochemical
Procedure: C. Activation of the indicated forms of PDK1 by 56K-pHM and S6K-HM. PDK1 activity was measured using the peptide substrate (T308tide) in the presence of the indicated concentrations of 56K-pHM (closed circles) and S6K-HM (open circles) as described in the methods. Assays were performed in triplicate and similar results obtained in 2 separate experiments. The results are the average—SD for a single experiment.
The ability of wild type and mutant PDK1 to phosphorylate the synthetic peptide T308tide ([…] ([Biondi et al., 2000]) (SEQ ID NO:108) was carried out in 30 μl assays containing 100 ng of wild type or mutant PDK1, 50 mM Tris/HCl pH 7.5, 0.1% 13-mercaptoethanol, 10 mM MgCl2, 100 μM [32γ P]ATP (200 cpm/pmol), 0.5 μM microcystin-LR, 1 mM T308tide in the presence or absence of the indicated concentrations of the 56K-pHM peptide ([…](P)YVAPSV) (SEQ ID NO:104) or 56K-HM. peptide ([…]) (SEQ ID NO:105). After incubation for 10 min at 30° C., 25 μl of the resultant mixture was spotted into P81 phosphocellulose paper (2×2 cm) and the papers washed and analysed as described previously for assays of MAP kinase. Control assays were carried out in parallel in which either PDK1, or peptide substrate were omitted; these values were always less than 5% of the activity measured in the presence of these reagents. One Unit of PDK1 activity was defined as that amount required to catalyse the phosphorylation of 1 nmol of the T308tide in 1 min.

[3] = target: T2, PDK1[Q150A] (Homo sapiens, UniProt O15530, Q150A); assay: Surface plasmon resonance (BiaCore) binding, PDK1[Q150A]; parameters: made in house; host or cells: human embryonic kidney 293 cells (pEBG2T vector)
T2 sequence (O15530 1-556 Q150A): T1 sequence (O15530 1-556 R131A) with A131R, Q150A
Procedure: as §1, §2, §3

`CC(C)C[C@H](NC(=O)[C@H](Cc1ccccc1)NC(=O)[C@@H](NC(=O)[C@H](CCC(N)=O)NC(=O)[C@H](CC(N)=O)NC(=O)[C@H](C)NC(=O)[C@H](CO)NC(=O)[C@H](CCC(=O)O)NC(=O)[C@@H](N)CO)C(C)C)C(=O)NCC(=O)N[C@@H](Cc1ccccc1)C(=O)N[C@H](C(=O)N[C@@H](Cc1ccc(O)cc1)C(=O)N[C@H](C(=O)N[C@@H](C)C(=O)N1CCC[C@H]1C(=O)N[C@@H](CO)C(=O)N[C@H](C(=O)O)C(C)C)C(C)C)[C@@H](C)OP(=O)(O)O` [S6K-pHM] (H-SESANQVFLGF[pT]YVAPSV-OH; N-terminus and C-terminus assumed) was tested, and the “binding of PDK1[R131A] to peptide” value [1] was “No detectable binding; also recorded: did not detectably interact”, the “activation of PDK1[R131A]” value ([2]; peptide 0.3 and 1 mM) was “only moderately further increased” and the “activation of PDK1[R131A]” value ([2]; peptide below 0.1 mM) was “not significantly activated”. The “binding of PDK1[Q150A] to peptide” value [3] was “No detectable binding; also recorded: did not detectably interact”.
